Laboratory results as given in ChEMBL document CHEMBL4261619, “Sentulic acid isolated from Sandoricum koetjape Merr attenuates lipopolysaccharide and interferon gamma co-stimulated nitric oxide production in murine macrophage RAW264 cells” (Bioorg Med Chem Lett, 2018).
The source made the active and inactive calls. The rule behind the calls is not given here.

Tests used:
Assay type in all cases: cell-based
[1] = molecular target: T1, Toll-like receptor 4 (Mus musculus) (UniProt Q9QUK6); test: Inhibition of LPS binding to TLR4 in IFNgamma-stimulated mouse RAW264.7 cells assessed as suppression of IFNgamma mRNA expression at 100 uM by qRT-PCR analysis
T1 sequence (whole entry): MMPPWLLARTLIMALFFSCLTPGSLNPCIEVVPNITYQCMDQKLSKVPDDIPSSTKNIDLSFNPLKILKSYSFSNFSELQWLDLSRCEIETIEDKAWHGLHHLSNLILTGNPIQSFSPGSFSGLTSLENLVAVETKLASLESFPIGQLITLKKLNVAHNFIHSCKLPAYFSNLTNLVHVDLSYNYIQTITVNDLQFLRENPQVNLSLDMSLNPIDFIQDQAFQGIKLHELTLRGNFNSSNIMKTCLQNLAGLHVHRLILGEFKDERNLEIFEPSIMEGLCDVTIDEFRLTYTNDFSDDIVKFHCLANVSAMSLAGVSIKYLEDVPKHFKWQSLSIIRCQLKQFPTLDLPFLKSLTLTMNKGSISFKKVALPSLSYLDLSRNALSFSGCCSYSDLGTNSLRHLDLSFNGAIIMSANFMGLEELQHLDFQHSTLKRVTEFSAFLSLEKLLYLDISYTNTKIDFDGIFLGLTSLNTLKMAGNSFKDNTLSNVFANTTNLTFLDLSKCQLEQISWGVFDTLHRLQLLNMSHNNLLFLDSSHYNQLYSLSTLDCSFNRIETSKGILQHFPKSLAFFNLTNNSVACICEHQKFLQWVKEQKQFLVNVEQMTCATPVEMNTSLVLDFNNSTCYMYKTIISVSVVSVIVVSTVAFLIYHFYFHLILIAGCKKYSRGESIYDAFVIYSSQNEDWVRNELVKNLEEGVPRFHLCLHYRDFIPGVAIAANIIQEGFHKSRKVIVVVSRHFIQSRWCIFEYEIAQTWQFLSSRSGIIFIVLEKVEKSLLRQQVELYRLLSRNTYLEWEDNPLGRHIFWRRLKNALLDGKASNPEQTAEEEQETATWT

[2] = molecular target: T1, Toll-like receptor 4 (Mus musculus); test: Inhibition of LPS binding to TLR4 in IFNgamma-stimulated mouse RAW264.7 cells assessed as suppression of IL6 mRNA expression at 100 uM by qRT-PCR analysis
[3] = molecular target: T1, Toll-like receptor 4 (Mus musculus); test: Inhibition of LPS binding to TLR4 in IFNgamma-stimulated mouse RAW264.7 cells assessed as effect on ratio of phosphorylated AKT to total AKT at 100 uM measured after 15 mins by Western blot analysis relative to beta-actin (reference value: 1.2)
[4] = molecular target: T1, Toll-like receptor 4 (Mus musculus); test: Inhibition of LPS binding to TLR4 in IFNgamma-stimulated mouse RAW264.7 cells assessed as effect on ratio of phosphorylated NFkappaB to total NFkappaB at 100 uM measured after 15 mins by Western blot analysis relative to beta-actin (reference value: 4.7)
[5] = molecular target: T1, Toll-like receptor 4 (Mus musculus); test: Inhibition of LPS binding to TLR4 in IFNgamma-stimulated mouse RAW264.7 cells assessed as suppression of COX2 mRNA expression at 100 uM by qRT-PCR analysis
[6] = molecular target: T1, Toll-like receptor 4 (Mus musculus); test: Inhibition of LPS binding to TLR4 in IFNgamma-stimulated mouse RAW264.7 cells assessed as effect on ratio of phosphorylated JNK to total JNK at 100 uM measured after 60 mins by Western blot analysis relative to beta-actin (reference value: 1.4)
[7] = molecular target: T1, Toll-like receptor 4 (Mus musculus); test: Inhibition of LPS binding to TLR4 in IFNgamma-stimulated mouse RAW264.7 cells assessed as effect on ratio of phosphorylated ERK to total ERK at 100 uM measured after 120 mins by Western blot analysis relative to beta-actin (reference value: 3)

inhibition [1]: Active
inhibition [2]: Active
fold change (FC) [3]: 1
fold change (FC) [4]: 2.9
inhibition [5]: inactive
fold change (FC) [6]: 1.1
fold change (FC) [7]: 2.2
SMILES: C=C(C)[C@@H]1CC[C@]2(C)[C@H](CC=C3[C@@H]4CC(C)(C)CC[C@]4(C)CC[C@]32C(=O)O)[C@@]1(C)CCC(=O)O
